These compounds were tested on bioluminescent sensor strain Escherichia coli MT102 (pSB403) (assay: Biosensor assay: quorum sensing inhibition, bioluminescence of the sensor strain). Conditions: 3oxo-C6-HSL 100 nM; bioluminescence after 4 hours at 30° C.
Assay type: cell-based
Procedure: Quorum sensing inhibition of the compounds was investigated with the aid of the bioluminescent sensor strain Escherichia coli MT102 (pSB403) (Winson et al., FEMS Microbiol. Lett. 163:185-92, 1998). Plasmid pSB403 contains the Photobacterium fischeri luxR gene together with the […] promoter region as a transcriptional fusion to the bioluminescence genes luxCDABE of Photorhabdus luminescence.
Inhibitory studies were conducted in a microtitre dish assay as follows: the E. coli sensor strain grown over night in LB medium (Sambrook et al., Molecular Cloning: A Laboratory Manual. 2nd Edn. Cold Spring Harbor Laboratory, New York, 1989) was diluted 1:4 and grown for another 1 hour at 30° C. After addition of 3oxo-C6-HSL (final concentration 100 nM) 100 μl of an exponential culture suspension were filled in the wells of a FluoroNunc Polysorp microtitre dish. The test compounds were added to the culture in different concentrations and bioluminescence was measured after 4 hours of incubation at 30° C. with a Lamda Fluoro 320 Plus reader (Bio-Tek Instruments). Inhibitor-mediated reduction of light emission was correlated with the value obtained without addition of the test compounds. IC50 values (concentration of inhibitor required for 50% inhibition of the signal compared to the signal without inhibitor) were determined by using a fitting function after drawing a graph of the activities of eight different inhibitor concentrations.
In the case of `CCn1nc(C)c(Br)c1C(=O)NNC(=O)c1ccc(Cl)s1` [Compound 67, 4-Bromo-2ethyl-5-methyl-2H-pyrazole-3-carboxylic acid N′-(5-chloro-thiophene-2-carbonyl)-hydrazide], the IC50 is reported as over 100 µM. With `CCn1nc(C)c(Br)c1C(=O)NNC(=O)c1ccc(Cl)s1` [Compound 73, 4-Bromo-2-ethyl-5-methyl-2H-pyrazole-3-carboxylic acid N′-(5-chloro-thiophene-2-carbonyl)-hydrazide] the IC50 was 1 to 50 µM.

Same assay, conditions: Escherichia coli, 4 h, 3oxo-C6-HSL 100 nM; bioluminescence after 4 hours at 30° C.
Work on `O=C(NNC(=O)c1cccs1)c1ccsc1` [Compound 47, Thiophene-3-carboxylic acid N′-(thiophene-2-carbonyl)-hydrazide] yielded an IC50 of 1 to 50 µM. `O=C(NNC(=O)c1sccc1Br)c1ccc(Cl)s1` [Compound 48] gave an IC50 of 50 to 100 µM. `O=C(NNC(=O)c1sccc1Cl)c1sccc1Cl` [Compound 49, 3-Chloro-thiophene-2-carboxylic acid N′-(3-chloro-thiophene-2-carbonyl)-hydrazide] was tested, and the IC50 was 50 to 100 µM. For `COc1c(C(=O)NNC(=O)c2cccs2)csc1Cl` [Compound 50, 5-Chloro-4-methoxy-thiophene-3-carboxylic acid N′-(thiophene-2-carbonyl)-hydrazide], the IC50 was 50 to 100 µM. `O=C(NNC(=O)c1sccc1Cl)c1cccs1` [Compound 51, 3-Chloro-thiophene-2-carboxylic acid N′-(thiophene-2-carbonyl)-hydrazide] was tested, and the IC50 was 50 to 100 µM. `O=C(NNC(=O)c1ccc(Cl)s1)c1cccs1` [Compound 52, Thiophene-2-carboxylic acid N′-(5-chloro-thiophene-2-carbonyl)-hydrazide] showed an IC50 of 50 to 100 µM. Compound `COc1c(C(=O)NNC(=O)c2ccc(C)s2)csc1Br` [Compound 53, 5-Bromo-4-methoxy-thiophene-3-carboxylic acid N′-(5-methyl-thiophene-2-carbonyl)-hydrazide] has an IC50 of 1 to 50 µM. `Cc1ccc(C(=O)NNC(=O)c2cccs2)s1` [Compound 54, Thiophene-2-carboxylic acid N′-(5-methyl-thiophene-2-carbonyl)-hydrazide] showed an IC50 of 1 to 50 µM. `O=C(NNC(=O)c1sccc1Br)c1cccs1` [Compound 55, Thiophene-2-carboxylic acid N′-(3-bromo-thiophene-2-carbonyl)-hydrazide] gave an IC50 of 1 to 50 µM. `CCOc1ccsc1C(=O)NNC(=O)c1sccc1Br` [Compound 56, 3-Bromo-thiophene-2-carboxylic acid N′-(3-ethoxy-thiophene-2-carbonyl)-hydrazide] gave an IC50 of 1 to 50 µM. `Cc1ccc(C(=O)NNC(=O)c2sccc2Br)s1` [Compound 57, 3-Bromo-thiophene-2-carboxylic acid N′-(5-methyl-thiophene-2-carbonyl)-hydrazide] gave an IC50 of 1 to 50 µM. With `O=C(NNC(=O)c1sccc1Cl)c1ccc(Cl)s1` [Compound 58, 3-Chloro-thiophene-2-carboxylic acid N′-(5-chloro-thiophene-2-carbonyl)-hydrazide] the IC50 was 50 to 100 µM. Compound `O=C(NNC(=O)c1ccc(Br)s1)c1cccs1` [Compound 59, Thiophene-2-carboxylic acid N′-(5-bromo-thiophene-2-carbonyl)-hydrazide] has an IC50 of 1 to 50 µM. `O=C(NNC(=O)c1sc2ccccc2c1Cl)c1cccs1` [Compound 60, 3-Chloro-benzo[b]thiophene-2-carboxylic acid N′-(thiophene-2-carbonyl)-hydrazide] was tested, and the IC50 was 1 to 50 µM. In the case of `O=C(NNC(=O)c1sc2ccccc2c1Cl)c1sccc1Br` [Compound 61, 3-Chloro-benzo[b]thiophene-2-carboxylic acid N′-(3-bromo-thiophene-2-carbonyl)-hydrazide], the IC50 is reported as 50 to 100 µM. `O=C(NNC(=O)c1sc2ccccc2c1Cl)c1ccc(Br)s1` [Compound 62, 3-Chloro-benzo[b]thiophene-2-carboxylic acid N′-(5-bromo-thiophene-2-carbonyl)-hydrazide] was tested, and the IC50 was 50 to 100 µM. For `Cc1nn(C)c2ncc(C(=O)NNC(=O)c3cccs3)c(Cl)c12` [Compound 63], the IC50 was over 100 µM. With `Cc1cc(C(=O)NNC(=O)c2sc3ccccc3c2Cl)n(C)n1` [Compound 64, 2,5-Dimethyl-2H-pyrazole-3-carboxylic acid N′-(3-chloro-benzo[b]thiophene-2-carbonyl)-hydrazide] the IC50 was over 100 µM. `Cc1cc(C(=O)NNC(=O)c2cccs2)n(C)n1` [Compound 66, 2,5-Dimethyl-2H-pyrazole-3-carboxylic acid N′-(thiophene-2-carbonyl)-hydrazide] was tested, and the IC50 was over 100 µM. With `Cc1cc(C(=O)NNC(=O)c2cccs2)n(C(C)(C)C)n1` [Compound 68, Thiophene-2-carboxylic acid N′-(2-tert-butyl-5-methyl-2H-pyrazole-3-carbonyl)-hydrazide] the IC50 was over 100 µM. `Cn1nc(C(C)(C)C)cc1C(=O)NNC(=O)c1ccc(Cl)s1` [Compound 69, 5-tert-Butyl-2-methyl-2H-pyrazole-3-carboxylic acid N′-(5-chloro-thiophene-2-carbonyl)-hydrazide] was tested, and the IC50 was 1 to 50 µM. `Cn1nc(C(C)(C)C)cc1C(=O)NNC(=O)c1cccs1` [Compound 70, Thiophene-2-carboxylic acid N′-(5-tert-butyl-2-methyl-2H-pyrazole-3-carbonyl)-hydrazide] gave an IC50 of over 100 µM. Work on `CCn1nc(C)c(Br)c1C(=O)NNC(=O)c1ccc(Br)s1` [Compound 71, 4Bromo-2-ethyl-5-methyl-2H-pyrazole-3-carboxylic acid N′-(5-bromo-thiophene-2-carbonyl)-hydrazide] yielded an IC50 of 1 to 50 µM. For `CCn1nc(C)c(Br)c1C(=O)NNC(=O)c1scc(C)c1Cl` [Compound 72, 4-Bromo-2-ethyl-5-methyl-2H-pyrazole-3-carboxylic acid N′-(3-chloro-4-methylthiophene-2-carbonyl)-hydrazide], the IC50 was over 100 µM. For `CCn1nc(C)c(Br)c1C(=O)NNC(=O)c1cc(Br)c(Br)s1` [Compound 74, 4-Bromo-2-ethyl-5-methyl-2H-pyrazole-3-carboxylic acid N′-(4,5-di-bromo-thiophene-2-carbonyl)-hydrazide], the IC50 was over 100 µM. `CCCC(=O)NNC(=O)c1cccs1` [Compound 75, Thiophene-2-carboxylic acid N′-butyryl-hydrazide] gave an IC50 of 1 to 50 µM. In the case of `CCCC(=O)NNC(=O)c1ccc(C)s1` [Compound 76, 5-Methyl-thiophene-2-carboxylic acid N′-butyryl-hydrazide], the IC50 is reported as 50 to 100 µM. `CCCC(=O)NNC(=O)c1ccc(Br)s1` [Compound 77, 5-Bromo-thiophene-2-carboxylic acid N′-butyryl-hydrazide] was tested, and the IC50 was 1 to 50 µM. For `O=C(CCCCCBr)NNC(=O)c1cccs1` [Compound 78, Thiophene-2-carboxylic acid N′-(6-bromo-hexanoyl)-hydrazide], the IC50 was 1 to 50 µM. `CCCCCCC(=O)NNC(=O)c1cccs1` [Compound 79, Thiophene-2-carboxylic acid N′-heptanoyl-hydrazide] gave an IC50 of 1 to 50 µM. Compound `Cc1csc(C(=O)NNC(=O)CCCCCBr)c1Cl` [Compound 80, 3-Chloro-4-methyl-thiophene-2-carboxylic acid N′-(6-bromo-hexanoyl)-hydrazide] has an IC50 of 1 to 50 µM. In the case of `CCCCCCC(=O)NNC(=O)c1scc(C)c1Cl` [Compound 81, 3-Chloro-4-methyl-thiophene-Z-carboxylic acid N′-heptanoyl-hydrazide], the IC50 is reported as 1 to 50 µM. Compound `Cc1ccc(C(=O)NNC(=O)CCCCCBr)s1` [Compound 82, 5-Methyl-thiophene-2-carboxylic acid N′-(6-bromohexanoyl)-hydrazide] has an IC50 of 1 to 50 µM. `CCCCCCC(=O)NNC(=O)c1ccc(C)s1` [Compound 83, 5-Methyl-thiophene-2-carboxylic acid N′-heptanoyl-hydrazide] gave an IC50 of 1 to 50 µM. For `CCCCCCC(=O)NNC(=O)c1ccc(Br)s1` [Compound 84, 5-Bromo-thiophene-2-carboxylic acid N′-heptanoyl-hydrazide], the IC50 was 1 to 50 µM. With `CCCCCCCC(=O)NNC(=O)c1sccc1Br` [Compound 85, 3-Bromo-thiophene-2carboxylic acid N′-octanoyl-hydrazide] the IC50 was 1 to 50 µM. Work on `CCCCCCCCCCCC(=O)NNC(=O)c1cccs1` [Compound 86, Thiophene-2-carboxylic acid N′-dodecanoyl-hydrazide] yielded an IC50 of 1 to 50 µM. `Cc1ccc(C(=O)NNC(=O)CCC2CCCC2)s1` [Compound 87, 5-Methyl-thiophene-2-carboxylic acid N′-(3-cyclopentyl-propionyl)-hydrazide] was tested, and the IC50 was 1 to 50 µM. With `COC(=O)CCCC(=O)NNC(=O)c1ccc(C)s1` [Compound 88] the IC50 was over 100 µM. Compound `CCCCCCC(=O)NNC(=O)c1ccco1` [Compound 89, Furan-2-carboxylic acid N′-heptanoyl-hydrazide] has an IC50 of 1 to 50 µM. With `O=C(CCC1CCCC1)NNC(=O)c1ccco1` [Compound 90, Furan-2-carboxylic acid N′-(3-cyclopentyl-propionyl)-hydrazide] the IC50 was 1 to 50 µM. Work on `CCCCCCCC(=O)NNC(=O)c1c(C)noc1C` [Compound 91, 3,5-Dimethyl-isoxazole-4carboxylic acid N′-octanoyl-hydrazide] yielded an IC50 of 1 to 50 µM. With `CCCCCCCC(=O)NNC(=O)c1c(Br)c(C)nn1CC` [Compound 92, 4-Bromo-2-ethyl-5-methyl-2H-pyrazole-3-carboxylic acid N′-octanoyl-hydrazide] the IC50 was 50 to 100 µM. Compound `CCCCCCCC(=O)NNC(=O)c1ccnc(Cl)c1` [Compound 93, 2-Chloro-isonicotinic acid N′-octanoyl-hydrazide] has an IC50 of 1 to 50 µM.

— US20090076012A1, “Modulation of pathogenicity” (priority 2002, published 2009)
